From patent US10233188B2, “CDK2/4/6 inhibitors” (priority 2016, dated 2019)

Columns and labels:
CDK2/Cyclin E1 = CDK2/Cyclin E1 (Homo sapiens (Human), UniProt P24941); assay: biochemical; details: CDK2_Ki (nM), phosphorylated CDK2/Cyclin E1, 150 μM ATP, Morrison tight-binding fit
Experimental: The assay was initiated with the addition of ATP, following a fifteen minutes pre-incubation of enzyme and inhibitor at room temperature in the reaction mixture. The reaction was stopped after 45 minutes at room temperature by the addition of 50 μL of 80 mM EDTA, pH 7.5.

CDK6/Cyclin D1 = CDK6/Cyclin D1 (Homo sapiens (Human), UniProt Q00534); assay: biochemical; details: CDK6_Ki (nM), non-phosphorylated CDK6/Cyclin D1, 2 mM ATP, Morrison fit
Sequence of CDK6/Cyclin D1 (Q00534 whole entry): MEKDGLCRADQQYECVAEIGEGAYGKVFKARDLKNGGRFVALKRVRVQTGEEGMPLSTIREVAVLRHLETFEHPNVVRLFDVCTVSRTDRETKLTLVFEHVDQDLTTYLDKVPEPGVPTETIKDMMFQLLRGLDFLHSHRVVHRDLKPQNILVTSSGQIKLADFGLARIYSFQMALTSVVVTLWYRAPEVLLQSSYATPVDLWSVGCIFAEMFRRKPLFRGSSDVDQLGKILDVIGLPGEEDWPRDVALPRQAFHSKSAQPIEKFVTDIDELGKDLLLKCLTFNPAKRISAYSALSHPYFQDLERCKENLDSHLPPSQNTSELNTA
Sequence of CDK6/Cyclin D1 (P24385 whole entry partner): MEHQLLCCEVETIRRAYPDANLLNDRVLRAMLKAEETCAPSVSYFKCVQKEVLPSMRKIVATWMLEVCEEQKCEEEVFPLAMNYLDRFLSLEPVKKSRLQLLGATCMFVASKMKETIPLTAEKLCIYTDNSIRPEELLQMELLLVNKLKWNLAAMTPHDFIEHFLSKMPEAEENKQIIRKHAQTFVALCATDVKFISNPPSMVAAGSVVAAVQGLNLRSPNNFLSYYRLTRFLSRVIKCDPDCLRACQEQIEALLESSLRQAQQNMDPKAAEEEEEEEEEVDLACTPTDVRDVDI

| Compound | Ki (CDK2/Cyclin E1) [nM] | Ki (CDK6/Cyclin D1) [nM] |
| --- | --- | --- |
| Cc1cc2cnc(NC3CCN(S(=O)(=O)NCC(C)(F)F)CC3)nc2n([C@H]2CCC[C@]2(C)O)c1=O (single isomer, unassigned) [Example 105, (+)-N-(2,2-difluoropropyl)-4-({8-[(1R*,2R*)-2-hydroxy-2-methylcyclopentyl]-6-methyl-7-oxo-7,8-dihydropyrido[2,3-d]pyrimidin-2-yl}amino)piperidine-1-sulfonamide] | 3.35 | 22.7 |
| CCc1cc2cnc(NC3CCN(S(C)(=O)=O)CC3)nc2n(C2CCCC2)c1=O [Example 141, 8-cyclopentyl-6-ethyl-2-{[1-(methylsulfonyl)piperidin-4-yl]amino}pyrido[2,3-d]pyrimidin-7(8H)-one] | 1.25 | 0.37 |
| COCCS(=O)(=O)N1CCC(Nc2ncc3cc(C)c(=O)n([C@H]4CCC[C@]4(C)O)c3n2)CC1 (single isomer, unassigned) [Example 115, (+)-8-[(1R*,2R*)-2-hydroxy-2-methylcyclopentyl]-2-({1-[(2-methoxyethyl)sulfonyl]piperidin-4-yl}amino)-6-methylpyrido[2,3-d]pyrimidin-7(8H)-one] | 2.39 | 3.17 |
| Cc1cc2cnc(NC3CCN(S(C)(=O)=O)CC3)nc2n([C@@H]2CC[C@@H](O)C2)c1=O (single isomer, unassigned) [Example 167, (−)-8-[(1R*,3R*)-3-hydroxycyclopentyl]-6-methyl-2-{[1-(methylsulfonyl)piperidin-4-yl]amino}pyrido[2,3-d]pyrimidin-7(8H)-one] | 1.47 | 1.63 |
| CNS(=O)(=O)N1CCC(Nc2ncc3cc(C)c(=O)n([C@@H]4CCC[C@@H]4C)c3n2)CC1 [Example 42, N-methyl-4-({6-methyl-8-[(1R,2S)-2-methylcyclopentyl]-7-oxo-7,8-dihydropyrido[2,3-d]pyrimidin-2-yl}amino)piperidine-1-sulfonamide] | 155 | 46.1 |
| CC[C@]1(O)CCC[C@@H]1n1c(=O)ccc2cnc(NC3CCN(S(C)(=O)=O)CC3)nc21 (single isomer, unassigned) [Example 194, (+)-(8-[(1R*,2R*)-2-ethyl-2-hydroxycyclopentyl]-2-{[1-(methylsulfonyl)piperidin-4-yl]amino}pyrido[2,3-d]pyrimidin-7(8H)-one] | 4.01 | 5.37 |

The next compounds have a lower Ki (CDK2/Cyclin E1) than those just listed; values first:

| Ki (CDK2/Cyclin E1) [nM] | Ki (CDK6/Cyclin D1) [nM] | Compound |
| --- | --- | --- |
| 0.2 | 0.96 | CNS(=O)(=O)N1CCC(Nc2ncc3cc(Cl)c(=O)n([C@@H]4CCC[C@@]4(C)O)c3n2)CC1 (single isomer, unassigned) [Example 126, (−)-4-({6-chloro-8-[(1R*,2R*)-2-hydroxy-2-methylcyclopentyl]-7-oxo-7,8-dihydropyrido[2,3-d]pyrimidin-2-yl}amino)-N-methylpiperidine-1-sulfonamide] |
| 0.14 | 0.77 | Cc1cc2cnc(NC3CCN(S(=O)(=O)NCC(C)(F)F)CC3)nc2n([C@@H]2CCC[C@@]2(C)O)c1=O (single isomer, unassigned) [Example 104, (−)-N-(2,2-difluoropropyl)-4-({8-[(1R*,2R*)-2-hydroxy-2-methylcyclopentyl]-6-methyl-7-oxo-7,8-dihydropyrido[2,3-d]pyrimidin-2-yl}amino)piperidine-1-sulfonamide] |
| 0.42 | 1.95 | CNS(=O)(=O)N1CCC(Nc2ncc3ccc(=O)n(C4CCCCCC4)c3n2)CC1 [Example 20, 4-[(8-cycloheptyl-7-oxo-7,8-dihydropyrido[2,3-d]pyrimidin-2-yl)amino]-N-methylpiperidine-1-sulfonamide] |
| 0.1 | 0.28 | CCS(=O)(=O)N1CCC(Nc2ncc3cc(C)c(=O)n([C@@H]4CCC[C@@]4(C)O)c3n2)CC1 (single isomer, unassigned) [Example 110, (−)-2-{[1-(ethylsulfonyl)piperidin-4-yl]amino}-8-[(1R*,2R*)-2-hydroxy-2-methylcyclopentyl]-6-methylpyrido[2,3-d]pyrimidin-7(8H)-one] |
